From patent US6455472B1, “Phenyl-substituted cyclic enaminones” (Bayer Aktiengesellschaft, priority 1998, dated 2002)

System: weeds
Test: Pre-emergence test, weeds
Format: in vivo
Conditions: soil watered 24 hours after sowing, assessed after three weeks, application rate not stated
Experimental: (§1) Solvent: 5 parts by weight of acetone
(§2) Emulsifier: 1 part by weight of alkylaryl polyglycol ether
(§3) To produce a suitable preparation of active compound, 1 part by weight of active compound is mixed with the stated amount of solvent, the stated amount of emulsifier is added and the concentrate is diluted with water to the desired concentration.
Seeds of the test plants are sown in normal soil and, after 24 hours, watered with the preparation of active compound. The amount of water per unit area is advantageously kept constant. The concentration of active compound in the preparation is immaterial, only the active compound application rate per unit area matters. After three weeks, the degree of damage to the plants is assessed in % damage in comparison with the development of the untreated control.

SMILES | activity against weeds (% damage)
N#C/C(C(=O)c1ccc(-c2ccc(Cl)cc2)cc1)=C1\CCCCN1 [I-1-a-54, 3-(4′-chloro-biphenyl-4-yl)-3-oxo-2-piperidin-2-ylidene-propionitrile] | strong activity

System: weeds
Test: Post emergence test, weeds
Format: in vivo
Conditions: sprayed, assessed after 3 weeks, application rate not stated
Experimental: as §1, §2, §3
Test plants which have a height of 5 to 15 cm are sprayed with the preparation of active compound such that the particular desired amounts of active compound are applied per unit area. After 3 weeks, the degree of damage to the plants is assessed in % damage in comparison to the development of the untreated controls.

SMILES | activity against weeds (% damage)
N#C/C(C(=O)c1ccc(-c2ccc(Cl)cc2)cc1)=C1\CCCCN1 [I-1-a-54, 3-(4′-chloro-biphenyl-4-yl)-3-oxo-2-piperidin-2-ylidene-propionitrile] | strong activity

System: caterpillars of the army worm (Spodoptera frugiperda)
Test: Spodoptera frugiperda test
Format: in vivo
Conditions: cabbage leaves (Brassica oleracea) dipped into preparation of active compound; concentration and time not stated
Experimental: Solvent: 7 parts by weight of dimethylformamide
Emulsifier:: 1 part by weight of alkylaryl polyglycol ether
To produce a suitable preparation of active compound, 1 part by weight of active compound is mixed with the stated amounts of solvent and emulsifier, and the concentrate is diluted with water to the desired concentration.
Cabbage leaves (Brassica oleracea) are treated by being dipped into the preparation of active compound of the desired concentration and are populated with caterpillars of the army worm (Spodoptera frugiperda) while the leaves are still moist.
After the desired period of time, the kill in % is determined. 100% means that all caterpillars have been killed; 0% means that none of the caterpillars have been killed.

SMILES | activity (kill in %) against Spodoptera frugiperda caterpillars
N#CC(C(=O)c1ccc(Cl)cc1)=C1CCCN1Cc1ccc(Cl)nc1 [Preparation Example 3, 3-(4-chlorophenyl)-2-[1-(6-chloropyridin-3-yl-methyl)-pyrrolidin-2-yli-dene]-3-oxo-propionitrile] | good activity

System: not given
Test: not given
Conditions: not given

SMILES | melting point [°C]
COC(=O)CSc1ccc(C(=O)/C(C#N)=C2/CCCCN2)cn1 [I-2-a-6] | 146
N#C/C(C(=S)c1ccc(Cl)cc1)=C1\CCCCN1 [I-1-a-151, 3-(4-chloro-phenyl)-3-thio-2-piperidin-2-ylidene-propionitrile] | 137
N#C/C(C(=O)c1ccc(-c2ccc(Cl)cc2)cc1)=C1\CCCCN1 [I-1-a-54, 3-(4′-chloro-biphenyl-4-yl)-3-oxo-2-piperidin-2-ylidene-propionitrile] | 134
N#C/C(C(=O)c1ccc(NS(=O)(=O)C(F)(F)F)cc1)=C1\CCCCN1 [I-1-a-138, 3-[4-(trifluoromethanesulphonylamino)-phenyl]-3-oxo-2-piperidin-2-ylidene-propionitrile] | 197
N#C/C(C(=O)c1ccc(Cl)cc1)=C1\CCCN1C(=O)c1ccc(Cl)cc1 [Example 5, 2-[1-(4-chlorobenzoyl)pyrrolidin-2-ylidene]-3-(4-chlorophenyl)-3-oxo-propionitrile] | 218
CCOC(=O)C1CC/C(=C(\C#N)C(=O)c2ccc(Cl)cc2)N1 (centres unmarked) [Example 7, ethyl 5-[2-(4-chloro-phenyl)-1-cyano-2-oxo-ethylidene]-pyrrolidine-2-carboxylate] | 108 to 110
CCOC(=O)C1CC/C(=C(\C#N)C(=O)c2ccccc2Cl)N1 (stereo not drawn) [I-1-d-4] | 222 to 224
N#C/C(C(=O)c1ccc(SCC(=O)O)nc1)=C1\CCCCN1 [I-2-a-7] | 155
CN1CCC/C1=C(\C#N)C(=O)c1ccc(Cl)cc1 [I-1-a-110, 3-(4-chloro-phenyl)-3-oxo-2-(1-methyl-pyrrolidin-2-ylidene)-propionitrile] | 115
N#C/C(C(=O)c1ccc(Cl)cc1)=C1\CCC(C(=O)O)N1 (centres unmarked) [Example 8, 5-[2-(4-chloro-phenyl)-1-cyano-2-oxo-ethylidene]-pyrrolidine-2-carboxylic acid] | 134 to 136
N#C/C(C(=O)c1ccc(Cl)cc1)=C1\CCCN1 [Example 1, 3-(4-chlorophenyl)-3-oxo-2-pyrrolidin-2-ylidene-propionitrile] | 156 to 158
